According to US7173004B2, “Macrocyclic isoquinoline peptide inhibitors of hepatitis C virus” (Bristol-Myers Squibb Company, priority 2003, dated 2007):
pIC50: −log10 of the molar value.

Biological target: T1, HCV NS3/4A protease complex, BMS strain (genotype 1a) (UniProt P27958, C1454S/C1711G, species not given/STRAIN_BMS)
T1 construct: b1001: DNA encoding the recombinant HCV NS3/4A protease complex (amino acids 1027 to 1711) ... a three-lysine solubilizing tail was added at the 3′-end of the NS4A coding region; fused on or other part: Three-lysine solubilising tail at the C-terminus of NS4A; A His tag is implied by the pET21b vector and Ni-NTA purification
Assay: Recombinant HCV NS3/4A protease complex FRET peptide assay, BMS strain
Assay type: biochemical
Settings: NS3/4A BMS strain; activity range symbols
Outline: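 Recombinant NS3/4A (aa 1027–1711) from H77C, J4L6S or BMS strains, with C1454S and C1711G mutations and three-lysine tail, expressed in E. coli and Ni-NTA/gel-filtration purified to >90%. Inhibition of cleavage of a FRET peptide substrate measured.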

SMILES	pIC50
CC(C)(C)OC(=O)N[C@H]1CN(S(C)(=O)=O)CCC/C=C\[C@@H]2C[C@@]2(C(=O)NS(=O)(=O)C2CC2)NC(=O)[C@@H]2C[C@@H](Oc3nccc4ccccc34)CN2C1=O [Compound 153]	> 7.30
COc1ccc2c(OC3CC4C(=O)NC5(C(=O)NS(=O)(=O)C6CC6)CC5C=CCCCOCC(NC(=O)OC(C)C)C(=O)N4C3)nc(-c3ccc(N(C)C)cc3)cc2c1 (centres unmarked) [Compound 109]	> 7.30
COc1ccc2c(OC3CC4C(=O)NC5(C(=O)NS(=O)(=O)C6CC6)CC5C=CCOCCCC(NC(=O)OC5CCCC5)C(=O)N4C3)nc(-c3ccccc3)cc2c1 (centres unmarked) [Compound 99]	> 7.30
COc1ccc2c(OC3CC4C(=O)NC5(C(=O)NS(=O)(=O)C6CC6)CC5C=CCCCOCC(NC(=O)OCC(C)(C)C)C(=O)N4C3)nc(-c3ccccc3)cc2c1 (centres unmarked) [Compound 95]	> 7.30
COc1ccc2c(O[C@@H]3C[C@H]4C(=O)N[C@]5(C(=O)NS(=O)(=O)C6CC6)C[C@H]5/C=C\COCC[C@H](NC(=O)OC(C)(C)C)C(=O)N4C3)nccc2c1 [Compound 141, [(Z)-(1S,4R,13S,17R)-4-cyclopropanesulfonylaminocarbonyl-17-(6-methoxy-isoquinolin-1-yloxy)-2,14-dioxo-10-oxa-3,15-diaza-tricyclo[13.3.0.0^4,6]octadec-7-en-13-yl]-carbamic acid tert-butyl ester]	6.30 to 7.30
O=CNC1CCCCCC=CC2CC2(C(=O)NS(=O)(=O)C2CC2)NC(=O)C2CC(Oc3nccc4ccccc34)CN2C1=O (centres unmarked) [Compound 119]	> 7.30
COc1ccc2c(OC3CC4C(=O)NC5(C(=O)NS(=O)(=O)C6CC6)CC5C=CCCCOCC(NC(=O)NC(C)(C)C)C(=O)N4C3)nccc2c1 (centres unmarked) [Compound 86]	> 7.30
COc1ccc2c(OC3CC4C(=O)NC5(C(=O)NS(=O)(=O)C6CC6)CC5C=CCCCOCC(NC(=O)NC(C)(C)C)C(=O)N4C3)nc(-c3ccccc3)cc2c1 (centres unmarked) [Compound 92]	> 7.30
COc1ccc2c(OC3CC4C(=O)NC5(C(=O)NS(=O)(=O)C6CC6)CC5C=CCCCOCC(NC(=O)OC5CCCC5)C(=O)N4C3)nc(-c3ccc(N(C)C)cc3)cc2c1 (centres unmarked) [Compound 110]	> 7.30
COc1ccc2c(O[C@@H]3C[C@H]4C(=O)N[C@]5(C(=O)NS(=O)(=O)C6CC6)C[C@H]5/C=C\CCCSC(C)(C)[C@H](NC(=O)OC(C)(C)C)C(=O)N4C3)nccc2c1 [Compound 80, (1S,4R,6S,14R,18R)-[7-cis-4-Cyclopropanesulfonylaminocarbonyl-13,13-dimethyl-18-(6-methoxyisoquinolin-1-yloxy)-2,15-dioxo-12-thia-3,16-diaza-tricyclo[14.3.0.0^4,6]nonadec-7-en-14-yl]carbamic acid, tert-butyl ester]	> 7.30
COc1ccc2c(OC3CC4C(=O)NC5(C(=O)NS(=O)(=O)C6CC6)CC5C=CCCCCCC(NC(=O)OC(C)(C)C)C(=O)N4C3)nccc2c1OC (centres unmarked) [Compound 134]	> 7.30
